The target in one test is T1, human TLR8 (Homo sapiens, UniProt Q9NR97).
T1 construct: host or cells: HEK-Blue cells
T1 sequence (Q9NR97 27-1041): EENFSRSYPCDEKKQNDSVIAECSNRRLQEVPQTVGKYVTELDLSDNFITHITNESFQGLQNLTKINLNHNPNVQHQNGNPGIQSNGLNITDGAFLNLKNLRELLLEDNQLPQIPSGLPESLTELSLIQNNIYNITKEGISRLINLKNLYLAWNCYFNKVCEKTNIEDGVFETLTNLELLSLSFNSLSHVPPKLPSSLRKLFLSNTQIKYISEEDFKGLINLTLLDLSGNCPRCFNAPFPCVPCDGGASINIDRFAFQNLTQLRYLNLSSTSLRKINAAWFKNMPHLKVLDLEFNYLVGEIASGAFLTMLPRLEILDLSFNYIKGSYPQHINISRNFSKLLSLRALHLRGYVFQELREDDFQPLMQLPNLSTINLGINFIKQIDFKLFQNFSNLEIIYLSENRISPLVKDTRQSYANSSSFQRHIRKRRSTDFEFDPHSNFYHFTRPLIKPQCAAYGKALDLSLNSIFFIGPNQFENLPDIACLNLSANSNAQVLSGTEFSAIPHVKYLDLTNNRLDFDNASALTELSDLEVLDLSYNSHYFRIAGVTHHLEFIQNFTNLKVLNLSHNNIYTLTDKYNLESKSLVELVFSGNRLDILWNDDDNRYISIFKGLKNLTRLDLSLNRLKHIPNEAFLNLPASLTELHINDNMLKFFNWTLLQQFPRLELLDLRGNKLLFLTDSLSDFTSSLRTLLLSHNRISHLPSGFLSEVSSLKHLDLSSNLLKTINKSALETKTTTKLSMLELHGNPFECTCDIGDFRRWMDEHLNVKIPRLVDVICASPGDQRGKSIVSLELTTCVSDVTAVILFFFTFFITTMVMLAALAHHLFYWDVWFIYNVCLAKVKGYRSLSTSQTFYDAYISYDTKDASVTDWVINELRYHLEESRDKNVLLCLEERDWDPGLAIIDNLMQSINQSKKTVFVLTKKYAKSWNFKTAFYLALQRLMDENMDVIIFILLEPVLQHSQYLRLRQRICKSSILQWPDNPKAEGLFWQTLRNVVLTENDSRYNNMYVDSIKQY
Briefly: TLR8 inhibition reporter assay (HEK-Blue SEAP). Type of test: cell-based. The note with it: HEK-Blue cells overexpressing human TLR8, R848 15.9 μM, 22 hour incubation. The procedure, abridged:
(§1)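 Agonists used: gardiquimod 7.5 μM (TLR7), R848 15.9 μM (TLR8), ODN2006 5 nM (TLR9), added after 30 min room-temperature compound pre-treatment (0.05 nM–50 μM) of receptor-overexpressing HEK-Blue cells. SEAP reporter (NF-κB/AP-1 driven) read after 22 h at 37 °C; inhibition scaled between agonist+DMSO and reference-inhibitor wells.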

Another test addresses T2, human TLR9 (Homo sapiens, UniProt Q9NR96).
T2 construct: host or cells: HEK-Blue cells
T2 sequence (Q9NR96 26-1032): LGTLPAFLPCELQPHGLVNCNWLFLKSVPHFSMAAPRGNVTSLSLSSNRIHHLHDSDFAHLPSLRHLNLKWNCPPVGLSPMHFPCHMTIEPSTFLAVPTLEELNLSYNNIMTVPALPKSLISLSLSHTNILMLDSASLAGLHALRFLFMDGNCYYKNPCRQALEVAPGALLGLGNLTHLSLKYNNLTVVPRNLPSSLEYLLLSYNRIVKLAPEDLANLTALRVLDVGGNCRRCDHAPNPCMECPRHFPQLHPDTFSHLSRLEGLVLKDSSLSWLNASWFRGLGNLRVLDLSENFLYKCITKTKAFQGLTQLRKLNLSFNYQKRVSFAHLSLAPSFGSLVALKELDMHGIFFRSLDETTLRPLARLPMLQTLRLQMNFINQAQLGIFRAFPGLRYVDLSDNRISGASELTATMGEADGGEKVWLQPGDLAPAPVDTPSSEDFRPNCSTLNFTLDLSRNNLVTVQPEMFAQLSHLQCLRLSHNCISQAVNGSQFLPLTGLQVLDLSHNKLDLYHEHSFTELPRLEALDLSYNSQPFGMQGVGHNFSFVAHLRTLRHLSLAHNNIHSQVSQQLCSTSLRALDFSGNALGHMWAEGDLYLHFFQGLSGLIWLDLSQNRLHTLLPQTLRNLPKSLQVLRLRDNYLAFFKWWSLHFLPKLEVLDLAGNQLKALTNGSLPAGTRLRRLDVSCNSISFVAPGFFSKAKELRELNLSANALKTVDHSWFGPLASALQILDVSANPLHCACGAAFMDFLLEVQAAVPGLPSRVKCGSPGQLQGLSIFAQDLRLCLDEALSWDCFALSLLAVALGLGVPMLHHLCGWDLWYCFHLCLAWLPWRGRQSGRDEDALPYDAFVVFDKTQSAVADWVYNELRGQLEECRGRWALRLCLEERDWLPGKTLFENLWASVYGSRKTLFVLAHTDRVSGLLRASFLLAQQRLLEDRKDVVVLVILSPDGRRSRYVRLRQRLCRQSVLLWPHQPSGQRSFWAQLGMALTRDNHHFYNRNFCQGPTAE
Briefly: TLR9 inhibition reporter assay (HEK-Blue SEAP). Type of test: cell-based. The note with it: HEK-Blue cells overexpressing human TLR9, ODN2006 5 nM, 22 hour incubation. An outline of the steps:
as §1
On the technique in general: In a reporter assay the amount or activity of a reporter protein is the signal.

For orientation: IC50 means the midpoint of a concentration-inhibition curve.

Take `Cc1cc2c(cc1-c1cc(C)c3ncnn3c1)[nH]c(=O)n2[C@H]1CC[C@H](N(C)C)CC1` [Example 23, 1-((1r,4r)-4-(dimethylamino)cyclohexyl)-6-methyl-5-(8-methyl-[1,2,4]triazolo[1,5-a]pyridin-6-yl)-1,3-dihydro-2H-benzo[d]imidazol-2-one]: the IC50 against human TLR8 was 30.9 nM; against human TLR9 it was 5660 nM.
Turning to `COc1cc(-c2ccc3c(c2)[nH]c(=O)n3C2CCNCC2)cn2ncnc12` [1 EI, 5-(8-methoxy-[1,2,4]triazolo[1,5-a]pyridin-6-yl)-1-(piperidin-4-yl)-1,3-dihydro-2H-benzo[d]imidazol-2-one], the IC50 is above 3130 nM on human TLR8 and 1180 nM on human TLR9.
On to `COC1CN(C2CCC(n3c(=O)[nH]c4cc(-c5cn6ncnc6c(C)c5C)c(C(C)C)cc43)CC2)C1` (single isomer, unassigned) [Example 277, 5-(7,8-dimethyl-[1,2,4]triazolo[1,5-a]pyridin-6-yl)-6-isopropyl-1-(4-(3-methoxyazetidin-1-yl)cyclohexyl)-1,3-dihydro-2H-benzo[d]imidazol-2-one], for which the concentration for half-maximal inhibition (IC50) on human TLR8 turned out to be 0.74 nM; against human TLR9, 7380 nM.
For the molecule `COc1cc(-c2cc3[nH]c(=O)n(C4CCC(N5CCC(F)(F)CC5)CC4)c3cc2C(C)C)cn2ncnc12` (single isomer, unassigned) [Example 247, 1-(4-(4,4-difluoropiperidin-1-yl)cyclohexyl)-6-isopropyl-5-(8-methoxy-[1,2,4]triazolo[1,5-a]pyridin-6-yl)-1,3-dihydro-2H-benzo[d]imidazol-2-one], the IC50 turned out to be 0.7 nM at human TLR8 and 14900 nM against human TLR9.
On the same counts, the results for `COc1c(C)c(-c2cc3[nH]c(=O)n(C4CCC(N5CC(F)C5)CC4)c3cc2C(C)C)cn2ncnc12` (single isomer, unassigned) [Example 264, 1-(4-(3-fluoroazetidin-1-yl)cyclohexyl)-6-isopropyl-5-(8-methoxy-7-methyl-[1,2,4]triazolo[1,5-a]pyridin-6-yl)-1,3-dihydro-2H-benzo[d]imidazol-2-one] are 5.93 nM and 17500 nM.
As for `CCN[C@H]1CC[C@@H](n2c(=O)[nH]c3cc(-c4cc(C)c5ncnn5c4)c(C)cc32)CC1` [Example 21, 1-((1s,4s)-4-(ethylamino)cyclohexyl)-6-methyl-5-(8-methyl-[1,2,4]triazolo[1,5-a]pyridin-6-yl)-1,3-dihydro-2H-benzo[d]imidazol-2-one], the concentration for half-maximal inhibition (IC50) against human TLR8 was found to be 13.3 nM; against human TLR9, 7060 nM.
On to `Cc1c(-c2cc3[nH]c(=O)n(C4CCC(N5CCCOCC5)CC4)c3cc2C(C)C)cn2ncnc2c1C` (stereo not drawn) [Example 271, 1-(4-(1,4-oxazepan-4-yl)cyclohexyl)-5-(7,8-dimethyl-[1,2,4]triazolo[1,5-a]pyridin-6-yl)-6-isopropyl-1,3-dihydro-2H-benzo[d]imidazol-2-one], for which the concentration for half-maximal inhibition (IC50) at human TLR8 was 0.36 nM; against human TLR9, 8160 nM.
On to `COc1c(C)c(-c2cc3[nH]c(=O)n(C4CCC(N5CC6(COC6)C5)CC4)c3cc2C(C)C)cn2ncnc12` (single isomer, unassigned) [Example 269, 1-(4-(2-oxa-6-azaspiro[3.3]heptan-6-yl)cyclohexyl)-6-isopropyl-5-(8-methoxy-7-methyl-[1,2,4]triazolo[1,5-a]pyridin-6-yl)-1,3-dihydro-2H-benzo[d]imidazol-2-one], for which the IC50 against human TLR8 was 1.58 nM; against human TLR9, 25600 nM.
Regarding `Cc1c(-c2cc3[nH]c(=O)n(C4CCC(N5CCC(F)(F)CC5)CC4)c3cc2C(C)C)cn2ncnc2c1C` (single isomer, unassigned) [Example 276, 1-(4-(4,4-difluoropiperidin-1-yl)cyclohexyl)-5-(7,8-dimethyl-[1,2,4]triazolo[1,5-a]pyridin-6-yl)-6-isopropyl-1,3-dihydro-2H-benzo[d]imidazol-2-one], the IC50 at human TLR8 worked out at 1.92 nM; on human TLR9, 15300 nM.
Regarding `Cc1c(-c2cc3[nH]c(=O)n(C4CCC(N5CCCC(F)C5)CC4)c3cc2C(C)C)cn2ncnc2c1C` (stereo not drawn) [Example 274, 5-(7,8-dimethyl-[1,2,4]triazolo[1,5-a]pyridin-6-yl)-1-(4-(3-fluoropiperidin-1-yl)cyclohexyl)-6-isopropyl-1,3-dihydro-2H-benzo[d]imidazol-2-one], the IC50 at human TLR8 was 1.09 nM; on human TLR9, 16800 nM.
For `COc1c(C)c(-c2cc3[nH]c(=O)n(C4CCC(N5CC(OC)C5)CC4)c3cc2C(C)C)cn2ncnc12` (stereo not drawn) [Example 265, 6-isopropyl-5-(8-methoxy-7-methyl-[1,2,4]triazolo[1,5-a]pyridin-6-yl)-1-(4-(3-methoxyazetidin-1-yl)cyclohexyl)-1,3-dihydro-2H-benzo[d]imidazol-2-one], the IC50 on human TLR8 was determined as 2.72 nM; against human TLR9 it was 19100 nM.
Regarding `Cc1cc2c(cc1-c1cc(C)c3ncnn3c1)[nH]c(=O)n2[C@H]1CC[C@@H](N(C)C)CC1` [Example 19, 1-((1s,4s)-4-(dimethylamino)cyclohexyl)-6-methyl-5-(8-methyl-[1,2,4]triazolo[1,5-a]pyridin-6-yl)-1,3-dihydro-2H-benzo[d]imidazol-2-one], the IC50 turned out to be 32 nM on human TLR8 and 16400 nM on human TLR9.
Regarding `COc1cc(-c2cc3[nH]c(=O)n(C4CCC(N5CCC(F)(F)C5)CC4)c3cc2C(C)C)cn2ncnc12` (single isomer, unassigned) [Example 295, 1-(4-(3,3-difluoropyrrolidin-1-yl)cyclohexyl)-6-isopropyl-5-(8-methoxy-[1,2,4]triazolo[1,5-a]pyridin-6-yl)-1,3-dihydro-2H-benzo[d]imidazol-2-one], the IC50 at human TLR8 was found to be 7.9 nM; at human TLR9, 22200 nM.
On to `Cc1cc2c(cc1-c1cc(C)c3ncnn3c1)[nH]c(=O)n2[C@H]1CC[C@@H](NC(C)C)CC1` [Example 22, 1-((1s,4s)-4-(isopropylamino)cyclohexyl)-6-methyl-5-(8-methyl-[1,2,4]triazolo[1,5-a]pyridin-6-yl)-1,3-dihydro-2H-benzo[d]imidazol-2-one], for which the IC50 turned out to be 4.08 nM against human TLR8 and 4630 nM against human TLR9.
With `Cc1c(-c2cc3[nH]c(=O)n(C4CCC(N5CCC6(CC5)COC6)CC4)c3cc2C(C)C)cn2ncnc2c1C` (single isomer, unassigned) [Example 283, 1-(4-(2-oxa-7-azaspiro[3.5]nonan-7-yl)cyclohexyl)-5-(7,8-dimethyl-[1,2,4]triazolo[1,5-a]pyridin-6-yl)-6-isopropyl-1,3-dihydro-2H-benzo[d]imidazol-2-one], the half-inhibitory concentration (IC50) against human TLR8 stood at 0.09 nM; on human TLR9, 5340 nM.

Values taken from patent US12187723B2 (BRISTOL-MYERS SQUIBB COMPANY, priority 2019, dated 2025).
